{"source": "patent US20230314454A1", "about": "“BLOOD COAGULATION TEST REAGENT, AND BLOOD COAGULATION TEST METHOD” (Thrombo Translational Research Lab Inc., priority 2020, published 2023)", "key": {"[1]": {"test_system": "thrombin generation in patient plasma", "test": "Thrombin generation test (TF/FXIa initiation reagent), apixaban spiked into patient plasma", "assay_type": "biochemical, human", "protocol": "(§1) In test, plasma specimens were prepared by centrifugation of blood that was collected using an anticoagulant citric acid. The plasma specimens were frozen at −80° C. until the test starts, and thawed at 37° C. immediately before the test, and used.\n(§2) The thrombin generation initiation reagent was prepared by mixing the following reagents. The thrombin formation initiation reagent was appropriately diluted with 50 mM tris buffer solution containing 0.5% bovine serum albumin (purchased from FUJIFILM Wako Pure Chemical Corporation) and 0.15 M sodium chloride (purchased from FUJIFILM Wako Pure Chemical Corporation) (BSA/TBS, pH 7.4). • Human TF (Dade Innovin, purchased from SYSMEX CORPORATION) solution • Human FXIa (purchased from Funakoshi Co., Ltd.) solution • Synthetic phospholipids (purchased from Haematex) solution • Calcium chloride (purchased from FUJIFILM Wako Pure Chemical Corporation) solution […]\n(§3) To quantify the generated thrombin, the thrombin detection reagent containing EDTA, which was a reaction stopping reagent, was then added to the plasma, followed by incubation at 37° C. for 1 minute. Since thrombin hydrolyzed the thrombin fluorogenic substrate to emit fluorescence during the incubation, the fluorescence intensity was measured using a fluorescence plate reader (excitation wavelength: 355 nm, fluorescence wavelength: 460 nm). The measured fluorescence intensity was converted into the thrombin concentration based on a standard curve constructed using a thrombin standard substance (Technothrombin TGA calibrator, purchased from Cosmo Bio Co., Ltd.). The thrombin generation in the plasma was expressed as a relative ratio (%) with respect to the thrombin generation in control plasma (Siemens control plasma N for blood coagulation test, purchased from SYSMEX CORPORATION).\nTo test inhibitory effect of the DOACs on thrombin generation, Test specimens were prepared by spiking rivaroxaban, apixaban, or edoxaban into plasma, and the thrombin generation in the plasma was assessed. […]"}, "[2]": {"test_system": "thrombin generation in plasma", "test": "Thrombin generation in plasma over time after taking apixaban", "assay_type": "in vivo, human", "details": "patients #004 and #005, 10 mg apixaban taken", "protocol": "as §1\nThe thrombin generation initiation reagent was prepared by mixing the following reagents. […]\nas §3, with “CORPORATION). […]” for “CORPORATION).”"}, "[3]": {"test_system": "blood coagulant activity (clotting time)", "test": "Blood coagulation tests APTT and PT-INR in plasma after taking apixaban", "assay_type": "in vivo, human", "details": "patients #004 and #005, after taking 10 mg apixaban", "procedure": "The coagulant activity of each of the test plasma specimen was tested using APTT and PT-INR test methods as blood coagulation tests. In both methods, the coagulant activity was determined by measuring clotting time after adding the coagulation initiation reagent into plasma specimens."}, "[4]": {"test_system": "thrombin generation in control plasma", "test": "Thrombin generation test (TF/FXIa initiation reagent), DOACs spiked into control plasma", "assay_type": "biochemical, human", "details": "DOAC added to control plasma at 18.5 ng/mL to 500 ng/mL; FIG. 2", "protocol": "as §2\nas §3, with “The thrombin generation in the plasma was expressed as a relative ratio (%) with respect to the thrombin generation in control plasma (Siemens control plasma N for blood coagulation test, purchased from SYSMEX CORPORATION).” left out"}}}
{"smiles": "COc1ccc(-n2nc(C(N)=O)c3c2C(=O)N(c2ccc(N4CCCCC4=O)cc2)CC3)cc1", "note": "[apixaban]", "values": [{"measurement": "effect of apixaban addition on thrombin generation in patient plasma", "setting": "[1]; apixaban 125, 250 or 500 ng/mL, plasma of patients #001, #002, #003, 150 fM TF, 12.5 pM FXIa", "result": "suppressed thrombin generation in the plasma from the patient in a dose-dependent fashion"}, {"measurement": "thrombin generation relative to control plasma", "setting": "[1]; plasma of patient #003 after adding apixaban (125-500 ng/mL)", "result": 25, "unit": "%"}, {"measurement": "thrombin generation relative to control plasma", "setting": "[1]; plasma of patients #001 and #002 after adding apixaban (125-500 ng/mL)", "result": "≤ 5", "unit": "%"}, {"measurement": "change in thrombin generation after taking apixaban", "setting": "[2]", "result": "decreased with increase in apixaban concentrations"}, {"measurement": "change in blood coagulant activities measured by APTT and PT-INR", "setting": "[3]", "result": "no significant alteration"}]}
{"smiles": "O=C(NC[C@H]1CN(c2ccc(N3CCOCC3=O)cc2)C(=O)O1)c1ccc(Cl)s1", "note": "[rivaroxaban]", "values": [{"measurement": "inhibitory effect on thrombin generation compared among the three DOACs", "setting": "[4]", "result": "strongest inhibitory effect"}]}
